In publication PMC11434290, “Pharmacokinetics and Dose Proportionality Study of a Novel Antiparkinsonian Agent, a 1H-1,2,4-Triazol-3-ylthio-conjugate of Prottremine” (Molecules, 2024):
Entries after “also recorded” stand apart in the source; their conditions may differ. One block for each compound: values may come before it.

Legend:
[1] = system: mice; settings: acute toxicity; cited from earlier work
[2] = system: MPTP-, haloperidol-, and rotenone-induced models; settings: cited from earlier work; for Dose showing antiparkinsonian activity: various mouse and rat models (MPTP-, haloperidol-, rotenone-induced)
[3] = Stability of PA-96 in prepared samples under different storage conditions; type: physicochemical; settings: within 7 days; +23 °C, +4 °C, −70 °C
Procedure: The stability of PA-96 in the prepared samples was investigated at different storage conditions, as mentioned in the experimental methods section.
(§1) To study the influence of the enzymes on the PA-96 stability in whole blood, mice blood spikes containing PA-96 in the concentration of 50 ng/mL were prepared. Aliquots of the spike were precipitated according to the protocol described above. Sampling was carried out at the following timepoints: 5, 10, 20, 30, 40, 50, 120, 180, and 240 min. The long-term stability of the samples was studied by the comparison of freshly prepared samples and samples prepared and kept in different conditions for 7 days. The storage conditions were the following: room temperature (+23 °C), household fridge (+4 °C), and Kelvinator (−70 °C). The acceptance criterion was a CV ≤ 15% for every day and any storing condition.

[4] = system: cultured naïve dopamine neurons; parameters: method as in PMID 36500381; settings: in vitro; cited from earlier work
[5] = Pharmacokinetics of PA-96 after single oral (p.o.) administration to mice; type: in vivo, CD-1 mice; settings: for Tmax / bioavailability / Cmax / half-life / AUC(0-t) / Vd/F: both sexes, CD-1, mouse, whole blood; for Tmax / Cmax / half-life / AUC(0-t) / Vd/F: po; for bioavailability: oral, assessed via AUC of i.v. injection at 1 mg/kg; for Vd/F: read-out: Vz/F_obs
Procedure: After the development and validation of the method for determination of PA-96 in mice blood, a preliminary pharmacokinetic study was carried out. The agent PA-96 was administered to two mice per os as a suspension in Tween-80 at a dose of 10 mg/kg, and blood samples were taken from the animals at 0.5, 1, 1.5, 2, 2.5, 3, 3.5, 4, 5, 5.5, and 24 h after administration. Four 10 µL samples were taken at each timepoint: two were spotted onto the paper and dried, and two others were precipitated using the ZnSO4 solution. All prepared samples were analysed, and the graph representing the PA-96 peak area values was plotted (Figure 6). […] As such, the PPT method for whole blood samples was chosen for the next experiments.
After administration, blood samples were taken from the tail vein of each animal at 5, 10, 20, 30, 40, 50, 60, 75, 90, 120, and 150 min, and the samples were prepared following the PPT protocol.
(§2) The LC–MS/MS analysis was carried out using a Shimadzu LC-20AD Prominence chromatograph equipped with a cooling autosampler, binary gradient pump, and column oven (Shimadzu, Japan) coupled with a 3200 QTRAP mass spectrometer (AB SCIEX, Framingham, MA, USA) equipped with an electrospray ionisation source (ESI). The mass spectrometer worked in positive mode and multiple reaction monitoring (MRM) detection mode for quantitation. Analyst 1.6.2 software (AB SCIEX, Framingham, MA, USA) was used for instrument control and data acquisition, and MultiQuant 2.1 software (AB SCIEX, Framingham, MA, USA) was used for quantitation. To calculate the main pharmacokinetic parameters, the Microsoft Excel plugin PKSolver was used.
(§3) CD-1 mice (male and female) were obtained from the SPF vivarium of the Institute of Cytology and Genetics, Russia. The mice weighed 25–30 g at the beginning of the experiment.
An accurately weighed amount of PA-96 was mechanically mixed with Tween-80 using a mortar and pestle followed by suspending the obtained sample in physiological solution. The animals (n = 2) received a single dose of 10 mg/kg per os (p.o.). The timepoints were 0.5, 1, 1.5, 2, 2.5, 3, 3.5, 4, 5, 5.5, and 24 h. At each timepoint, 10 µL of blood was taken from the tail vein, and the sample was prepared by DBS and PPT with ZnSO4 in methanol. Afterwards, the samples were analysed in accordance with the HPLC–MS/MS protocol.
In the next experiment, the sampling scheme was optimised by changing the timepoints as follows: 5, 10, 20, 30, 40, 50, 60, 75, and 90 min, and 2, 2.5, 3, 3.5, 4, and 5 h; this was in order to investigate the pharmacokinetics more thoroughly. The experiment design was not changed, but the sample preparation was carried out by the PPT method exclusively.
(§4) In order to investigate the bioavailability and dose proportionality, PA-96 was administered p.o. at the dosages of 1, 5, and 10 mg/kg and intravenously (i.v.) at the dosages of 1 and 10 mg/kg. For each experiment, we used 6–7 mice. The blood was drawn from the tail vein at the following timepoints: 3, 5, 10, 15, 30, 45, 60, 90, 120, and 150 min. The samples were prepared and analysed.

[6] = Pharmacokinetics of PA-96 after double p.o. administration to mice; type: in vivo, CD-1 mice; settings: for AUC(0-t) / Cmax / half-life / Vd/F: 5 mg/kg; for Vd/F: read-out: Vz/F_obs
Procedure: In our work, an experiment with double administration of the agent PA-96 was carried out. The substance was administered to mice (n = 6) two times at doses of 5 mg/kg within the interval of 4 h as a formulation in Tween-80. After the first administration, blood was collected from the tail vein of each animal at 5, 10, 20, 30, 40, 50, 60, 75, and 90 min, and 2, 2.5, 3, 3.5, and 4 h. After the administration of the second dose, blood was collected at the same timepoints, and all samples were prepared following the PPT protocol.
as §2, §3
To investigate the pharmacokinetics of PA-96 in a multiple dosing regimen, the dosage form was prepared as described above, but only half was administered to the animals (n = 6). The first portion, corresponding to a dose of 5 mg/kg, was administered to the mice followed by blood sampling at 5, 10, 20, 30, 40, 50, 60, 75, and 90 min, and 2, 2.5, 3, 3.5, and 4 h after administration. At the latter timepoint, the second dose was administered, and the blood was sampled at the same timepoints as listed above.

[7] = Stability of PA-96 in whole mouse blood; type: in vitro ADME, mice; settings: spike 50 ng/mL, 5-240 min
Source text: A crucial factor to consider is the stability of the compound in biological matrices. Both whole blood and plasma may contain enzymes able to metabolise the substance, and the metabolism rate can be relatively high. This can result in a rapid decrease in the substance concentration and an incorrect calibration curve. Additionally, if blood samples from experimental animals are dried as spots, metabolism during drying may lead to incorrect analyte concentrations. Considering these factors, we investigated the stability of the agent PA-96 in whole mouse blood.
as §1

[8] = Pharmacokinetics of PA-96 after intravenous (i.v.) injection to mice; type: in vivo, CD-1 mice; settings: for AUC(0-t) / Cmax / Tmax / half-life: both sexes, CD-1, mouse, whole blood, iv
Procedure: To evaluate the bioavailability of the agent PA-96, a suspension of the compound with Tween-80 was administered intravenously at doses of 1 and 10 mg/kg. After administration, blood in an amount of approximately 10 µL was collected from the tail vein of each animal at 5, 10, 15, 30, 45, 60, 90, 120, and 150 min, and samples were prepared following the PPT protocol.
Therefore, it was necessary to widen the operating concentration range of the calibration curve. To quantify PA-96 in these blood samples, we prepared and analysed spikes containing the agent in concentrations of 530, 1325, 2650, 3530, 8800, 10,600, and 21,200 ng/mL, which were used to construct a high-concentration calibration curve. In addition to these calibrators, quality control samples were prepared containing PA-96 at the concentrations of 1760, 5300, and 17,100 ng/mL (QCL, QCM, and QCH, respectively). […] As the objective of building this calibration curve was to evaluate the concentration of PA-96 only in several samples, the full validation of this expansion of the developed bioanalytical method was not performed.
as §2, §3
as §4, with “For each experiment, we used 6–7 mice.” left out

[9] = 5 mg/kg, single p.o., mice, mean ± SEM, n = 4
[10] = 10 mg/kg, single p.o., mice, mean ± SEM, n = 4
[11] = single p.o., 5 mg/kg, mice, mean ± SEM, n = 4
[12] = single p.o., 10 mg/kg, mice, mean ± SEM, n = 4
[13] = both sexes, CD-1, mouse, whole blood, po, double p.o. 2×5 mg/kg, 1st administration, mean ± SEM, n = 6
[14] = both sexes, CD-1, mouse, whole blood, po, double p.o. 2×5 mg/kg, 2nd administration, mean ± SEM, n = 6
[15] = animal MPTP and haloperidol models of PD

Compound: C=C(C)[C@@H]1CC=C(C)[C@@H](O)[C@@H]1O [Prottremine, (1R,2R,6S)-3-methyl-6-(prop-1-en-2-yl)cyclohex-3-ene-1,2-diol]
LD50 [1]: 4250 mg/kg
Dose showing antiparkinsonian activity [2]: 20 mg/kg

Compound: N[C@@H](Cc1ccc(O)c(O)c1)C(=O)O [L-DOPA, reference compound]
Dose showing antiparkinsonian activity [2]: 50 to 100 mg/kg

Change of PA-96 concentration in prepared samples [3]: ≤ 11%
Tmax ([5]; single p.o., 5 mg/kg, mice, mean ± SEM, n = 4, read-out: Tmax (converted)): 6.3 min
Tmax ([5]; single p.o., 10 mg/kg, mice, mean ± SEM, n = 4, read-out: Tmax (converted)): 8.8 min
bioavailability ([5]; p.o. 5 mg/kg, mice): ~7%
bioavailability ([5]; p.o. 10 mg/kg, mice): ~35%
Cmax [5, 9]: ~36 ng/mL
half-life [5, 9]: 44 ± 13 min
Cmax [5, 10]: ~588 ng/mL
half-life [5, 10]: 15 min
Tmax ([5]; p.o. doses of 5 mg/kg and 10 mg/kg, mice, read-out: Time of maximum concentration after administration): 5 to 10 min
AUC(0-t) [5, 11]: 28.3 ng·h/mL
Vd/F [5, 11]: 190 L/kg
AUC(0-t) [5, 12]: 300 ng·h/mL
Vd/F [5, 12]: 13.7 L/kg
Signal (concentration) in blood samples ([5]; p.o. 1 mg/kg, n = 2, mice, LLOQ 25 ng/mL): lower than the LLOQ
Time of complete elimination at oral administration ([5]; p.o. 5 and 10 mg/kg, mice): 2.5 to 3 h
Increase in both Cmax and AUC on twofold increase in the dose ([5]; p.o. 5 vs 10 mg/kg, mice): by an order of magnitude
Time of complete elimination ([5]; preliminary study, p.o. 10 mg/kg, n = 2 mice): 2.5 h
Timepoint of maximum concentration ([5]; preliminary study, p.o. 10 mg/kg, n = 2 mice, first timepoint sampled): 30 min
t1/2 [5, 12]: 15.2 ± 1.2 min
AUC(0-t) [6, 13]: 25 ng·h/mL
Cmax [6, 13]: 60 ± 15 ng/mL
half-life [6, 13]: 21 ± 4 min
Vd/F [6, 13]: 108 ± 25 L/kg
AUC(0-t) [6, 14]: 135 ng·h/mL
Cmax [6, 14]: 58 ± 13 ng/mL
half-life [6, 14]: 19 ± 3 min
Vd/F [6, 14]: 25 ± 4 L/kg
Tmax ([6]; both sexes, CD-1, mouse, whole blood, po, double p.o. 2×5 mg/kg, interval 4 h, 1st administration, mean ± SEM, n = 6): 10 min
Accumulation after double administration (Cmax, AUC0-∞) ([6]; double p.o. 2×5 mg/kg, interval 4 h, mice): absence of its accumulation
Time to full elimination after administration ([6]; p.o. 5 mg/kg, double administration experiment, mice): 4 h
AUC(0-t) ([8]; 1 mg/kg, mean ± SEM, n = 6): 85 ng·h/mL
Cmax ([8]; 1 mg/kg, mean ± SEM, n = 6): 390 ng/mL
Tmax ([8]; 1 mg/kg, mean ± SEM, n = 6): 3.3 min
half-life ([8]; 1 mg/kg, mean ± SEM, n = 6): 37 ± 10 min
AUC(0-t) ([8]; 10 mg/kg, mean ± SEM, n = 2): 2170 ng·h/mL
Cmax ([8]; 10 mg/kg, mean ± SEM, n = 2): > 7700 ng/mL
half-life ([8]; 10 mg/kg, mean ± SEM, n = 2): 26.1 ± 2.9 min
Tmax ([8]; 10 mg/kg, n = 2): 3 min
Concentration level 1 h after administration ([8]; i.v. 1 and 10 mg/kg): several nanograms per mL
Time in which concentration decreases twofold after injection ([8]; i.v. 1 and 10 mg/kg): 10 to 15 min
Increase of AUC when the dose was increased tenfold ([8]; i.v. 1 vs 10 mg/kg): approximately 25 times
Increase of Cmax when the dose was increased tenfold ([8]; i.v. 1 vs 10 mg/kg): twentyfold
Compound: C=C(C)[C@@H]1CC=C(C)[C@@H](Sc2nc[nH]n2)[C@@H]1O [PA-96]
Survival of cultured naïve dopamine neurons [4]: supported the survival; also recorded: improved potency
PA-96 concentration in whole mouse blood during stability investigation [7]: consistent within the accuracy of analysis error
Effect on motor deficits ([2]; MPTP and haloperidol-based mice models of Parkinson's disease): alleviated motor deficits
Density of tyrosine hydroxylase positive neurons and dopamine concentration in the midbrain ([2]; MPTP-damaged brain): increased
Antiparkinsonian activity relative to Prottremine [2, 15]: more active than Prottremine
Dose at which antiparkinsonian effect was displayed [2, 15]: 1 mg/kg
